# From patent US20230242887A1, “ONCOLYTIC VIRUS CARRYING E-CADHERIN AND USES THEREOF” (Ohio State Innovation Foundation, priority 2017, published 2023)
# pIC50: −log10 of the molar value.
# Assays:
# [1] = system: OV-CDH1; assay: Viral replication inhibition assay (HSV-1 genome copies by real-time PCR); assay type: cell-based; details: Human alphaherpesvirus 1; Gli36 cells, MOI of 5, 48 h
# Protocol: (§1) FIGS. 12A-12B illustrate the safety test for OV-CDH1. FIG. 12(A) illustrates that Gli36 cells were infected with OV-Q1 or OV-CDH1 at a MOI of 5. Two hours after infection, the infection media were replaced with fresh media with increasing concentrations of Acyclovir. Forty-eight hours after infection, the cells were harvested for DNA extraction. The HSV-1 genome copy numbers in OV-Q1 and OV-CDH1 infected cells were measured by real-time PCR with primers and a probe against gD. The copy number vs. dose curves were established to evaluate the inhibitory effect of Acyclovir against oHSV replication (n=3). FIG. 12(B) illustrates survival curves of BLAB/c mice treated with wild-type HSV-1 (F strain), OV-Q1 or OV-CDH1 at the dose of 1×10^6 via i.c. or i.v injections.
# (§2) OV-Q1 and OV-CDH1 both carry the HSV-1 TK gene, which makes the viruses sensitive to the antiviral acyclovir and its derivatives. […] For evaluating the in vivo safety of OV-CDH1, BALB/c mice were intravenously (i.v.) or i.c. injected with wild-type HSV-1 (F strain), OV-Q1, or OV-CDH1 at the dose of 1×10^6 PFU, which is the maximum dose due to the limited administration volume for i.c. injection. […] Mice treated with OV-Q1 and OV-CDH1 through i.v. or i.c. injections all survived over 4 weeks until they were euthanized and not monitored further (FIG. 12B). […]
# [2] = system: OV-Q1; assay: as above; assay type: cell-based; details: Human alphaherpesvirus 1, GLI36, 48 h, read-out: IC50 of inhibition of OV-Q1 replication
# Protocol: as §1, §2
structure (smiles),measurement,setting,value
Nc1nc2c(ncn2COCCO)c(=O)[nH]1 [acyclovir],pIC50,[1],5.57
same,pIC50,[2],5.78
